Legend:
Experiment in all cases: tryptophan fluorescence quenching, glutathionylation of SQLWCLSN, AUC
Assay type in all cases: biochemical
rCLIC3 = target: T1, rCLIC3 (Homo sapiens, UniProt O95833); settings: 5 mM GSSG, 100 uM peptide, McIlvaine's buffer pH 8, 0.1 uM enzyme; 1 h pre-incubation with 10 uM IAA-94
T1 construct: gene CLIC3; recombinant, soluble form; pET28a(+), E. coli BL21(DE3); His-tag removed by thrombin; SEC; endotoxin removed

rCLIC4 = target: T2, rCLIC4 (Homo sapiens, UniProt Q9Y696); settings: 5 mM GSSG, 100 uM peptide, McIlvaine's buffer pH 7, 0.1 uM enzyme; 1 h pre-incubation with 10 uM IAA-94
T2 construct: gene CLIC4; recombinant, soluble form; pET28a(+), ClearColi BL21(DE3); His-tag removed by thrombin; SEC

rCLIC1 = target: T3, rCLIC1 (Homo sapiens, UniProt O00299); settings: 5 mM GSSG, 100 uM peptide, McIlvaine's buffer pH 7, 0.1 uM enzyme; 1 h pre-incubation with 10 uM IAA-94
T3 construct: gene CLIC1; recombinant, soluble form; pET28a(+), ClearColi BL21(DE3); His-tag removed by thrombin; SEC

T1 sequence (O95833 whole entry): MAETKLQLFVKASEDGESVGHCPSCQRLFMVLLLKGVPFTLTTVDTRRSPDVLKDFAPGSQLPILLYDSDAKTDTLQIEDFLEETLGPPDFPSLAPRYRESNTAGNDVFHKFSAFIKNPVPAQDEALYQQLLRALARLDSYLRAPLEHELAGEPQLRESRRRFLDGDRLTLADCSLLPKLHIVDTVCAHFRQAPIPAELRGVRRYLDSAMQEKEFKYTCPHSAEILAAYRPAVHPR
T2 sequence (Q9Y696 whole entry): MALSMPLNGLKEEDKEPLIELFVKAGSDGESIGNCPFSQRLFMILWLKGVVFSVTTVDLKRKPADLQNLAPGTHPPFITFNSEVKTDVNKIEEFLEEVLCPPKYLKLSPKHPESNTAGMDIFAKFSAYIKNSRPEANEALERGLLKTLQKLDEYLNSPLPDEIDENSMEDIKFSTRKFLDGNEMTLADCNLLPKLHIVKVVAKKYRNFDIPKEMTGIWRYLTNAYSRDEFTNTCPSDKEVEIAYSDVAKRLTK

fold reduction of glutathionylation activity at 10 uM (rCLIC3): 0.2 fold | fold decrease in glutathionylation activity at 10 uM (rCLIC4): 0.4 fold | fold decrease in glutathionylation activity at 10 uM (rCLIC1): 0.7 fold
Structure (SMILES): CC1(C2CCCC2)Cc2cc(OCC(=O)O)c(Cl)c(Cl)c2C1=O (stereo not drawn) [IAA-94]
